# In patent US20250051409A1, “MODULATORS OF PHOSPHATIDYLSERlNE DECARBOXYLASE AND USE THEREOF” (THE NATIONAL INSTITUTE FOR BIOTECHNOLOGY IN THE NEGEV LTD., priority 2021, published 2025):
# Square brackets hold non-standard residues; d marks the D form. Peptide text beside a SMILES is read from it. Dmt = Cc1cc(O)cc(C)c1C[C@H](N)C(=O)O; Orn = NCCC[C@H](N)C(=O)O
# Test system: A549 lung cancer cell
# Type: cell-based, human
# Conditions: 24 h
# Method: (B) Inhibition of PSD activity by the 2F3 (●) or 1C11 (◯) peptide. PSD activity was measured using the DSB-3 method. (C-E) Cell proliferation inhibition following incubation of A549 cells with the indicated mitochondria- or nuclear-targeted peptides for 24 h in a serum-free medium, and cell proliferation was assayed using the SRB method. Results are the means±SEM (n=3). (F) A549 cells were incubated for 90 min with 5 μM of the mitochondria- or nuclear targeted FITC-labelled peptides, immunostained with anti-SMAC antibodies and with DAPI and visualized by confocal microscope for subcellular localization. Arrows indicates nuclear (n=3). Scale bars represent 20
# (A) A549 cells were incubated with the indicated concentration of 1C11-HTRA2-derived peptide targeted to the mitochondrion with the targeting sequence added to the N-terminus (N-Ter) or the C-terminus (C-Ter). (B) Mitochondrion targeted 1C11-HTRA2-derived peptide was modified by replacing the three amino acids in the C or the N-terminus of the peptide, or all amino acids in the peptide with the D-confirmation of the amino acid (underlined amino acids)). Following 24 h incubation in a serum-free medium, cell proliferation was assayed using the SRB method. (C) The concentration required for 50% inhibition of cell proliferation (IC50) is presented. Results are the means±SEM (n=3).
# A549 (human lung adenocarcinoma epithelial cell), HEK-293T (human embryonic kidney), H1563/CRL-5875 (non-small cell lung cancer adenocarcinoma), H-358 (bronchioalveolar carcinoma), HaCaT (spontaneously transformed aneuploid immortal human skin keratinocyte), and WI-38 (fibroblast-like fetal lung cell) cell lines were purchased from the American Type Culture Collection (ATCC) (Manassas, VA), and were maintained as per ATCC instructions. Cells were maintained in ATCC recommended medium at 37° C. in an incubator with 5% CO2. Cell lines were routinely tested for Mycoplasma contamination. For SMAC overexpression, cells were seeded (200,000 cells/well) on 6-well culture plates and allowed to adhere overnight. These adhered cells were transfected with PVMV3.1-SMAC or empty vector using the JetPRIME transfection reagent (Illkirch, France), according to the manufacturers' instructions. Medium was changed 6 h post transfection, and cells were harvested 48 h post transfection.
# Cells were seeded in 96-well cell culture plates (8,000/well) and allowed to grow for 48 h. After washing with PBS, cells were fixed with 10% trichloroacetic acid, and stained with SRB for 20 min. Excess SRB were removed, and cells were washed with 1% acetic acid. SRB extraction was done using 100 mM Tris-base, and absorbance at 510 nm was determined using an Infinite M1000 plate reader (Tecan, Mannedorf, Switzerland).
row,IC50 [µM],Structure (SMILES)
1,19.6 ± 0.4,CC[C@H](C)[C@H](NC(=O)[C@@H]1CCCN1C(=O)[C@H](CO)NC(=O)[C@H](CO)NC(=O)[C@@H](NC(=O)[C@H](CO)NC(=O)[C@H](CC(C)C)NC(=O)[C@H](C)N)[C@@H](C)O)C(=O)N1CCC[C@H]1C(=O)N[C@@H](CO)C(=O)N[C@H](C(=O)N1CCC[C@H]1C(=O)N[C@@H](CCC(N)=O)C(=O)N[C@@H](CO)C(=O)N[C@@H](CCC(N)=O)C(=O)N[C@@H](C)C(=O)N[C@@H](CCC(N)=O)C(=O)N1CCC[C@H]1C(=O)N[C@@H](CCC(N)=O)C(=O)N[C@H](C(=O)NCC(=O)N[C@@H](CO)C(=O)NCC(=O)N[C@@H](C)C(=O)N[C@@H](CO)C(=O)N[C@H](CCCNC(=N)N)C(=O)N[C@@H](Cc1c(C)cc(O)cc1C)C(=O)N[C@@H](CCCN)C(=O)N[C@@H](Cc1ccccc1)C(N)=O)[C@@H](C)O)C(C)C [2F3-D-Arg-Dmt-Orn-Phe] (H-ALSTSSPIPSVPQSQAQPQTGSGAS[dR][Dmt][Orn]F-NH2; N-terminus and C-terminus assumed)
2,30.2 ± 3.6,Cc1cc(O)cc(C)c1C[C@H](NC(=O)[C@@H](CCCNC(=N)N)NC(=O)[C@H](CCC(N)=O)NC(=O)[C@H](CCC(N)=O)NC(=O)[C@H](CO)NC(=O)[C@H](CC(C)C)NC(=O)[C@H](Cc1ccccc1)NC(=O)[C@H](CC(=O)O)NC(=O)[C@H](Cc1ccccc1)NC(=O)[C@H](C)NC(=O)[C@H](CC(C)C)NC(=O)[C@H](CC(=O)O)NC(=O)[C@H](CO)NC(=O)[C@H](CO)NC(=O)[C@H](Cc1c[nH]cn1)NC(=O)[C@H](CC(=O)O)NC(=O)[C@@H](NC(=O)CNC(=O)[C@H](CCC(N)=O)NC(=O)[C@H](Cc1ccccc1)NC(=O)[C@H](C)NC(=O)[C@H](CCCNC(=N)N)NC(=O)[C@H](CO)NC(=O)[C@H](CO)NC(=O)[C@H](CCC(N)=O)NC(=O)[C@H](CC(N)=O)NC(=O)[C@@H]1CCCN1)[C@@H](C)O)C(=O)N[C@@H](CCCN)C(=O)N[C@@H](Cc1ccccc1)C(N)=O [2I8-(D-Arg)-Dmt-Orn-Phe-NH2] (H-PNQSSRAFQGTDHSSDLAFDFLSQQ[dR][Dmt][Orn]F-NH2; N-terminus assumed)
3,19.7 ± 4.3,CC(C)C[C@H](NC(=O)[C@H](CC(=O)O)NC(=O)[C@H](CO)NC(=O)[C@H](CO)NC(=O)[C@H](Cc1c[nH]cn1)NC(=O)[C@H](CC(=O)O)NC(=O)[C@@H](NC(=O)CNC(=O)[C@H](CCC(N)=O)NC(=O)[C@H](Cc1ccccc1)NC(=O)[C@H](C)NC(=O)[C@H](CCCNC(=N)N)NC(=O)[C@H](CO)NC(=O)[C@H](CO)NC(=O)[C@H](CCC(N)=O)NC(=O)[C@H](CC(N)=O)NC(=O)[C@@H]1CCCN1)[C@@H](C)O)C(=O)N[C@@H](C)C(=O)N[C@@H](Cc1ccccc1)C(=O)N[C@@H](CC(=O)O)C(=O)N[C@@H](Cc1ccccc1)C(=O)N[C@@H](CC(C)C)C(=O)N[C@@H](CO)C(=O)N[C@@H](CCC(N)=O)C(=O)N[C@@H](CCC(N)=O)C(=O)N[C@@H](CCCNC(=N)N)C(=O)N[C@H](CCCNC(=N)N)C(=O)N[C@@H](CCCNC(=N)N)C(=O)N[C@@H](CCCCN)C(=O)O [2I8-R-{D-Arg}-RK] (H-PNQSSRAFQGTDHSSDLAFDFLSQQR[dR]RK-OH; N-terminus and C-terminus assumed)

# Further lines, the molecule ahead of its results:
row,Structure (SMILES),IC50 [µM]
1,Cc1cc(O)cc(C)c1C[C@H](NC(=O)[C@@H](CCCNC(=N)N)NC(=O)[C@H](CC(C)C)NC(=O)[C@H](CCCNC(=N)N)NC(=O)[C@H](C)NC(=O)[C@H](Cc1c[nH]c2ccccc12)NC(=O)[C@H](CC(C)C)NC(=O)[C@H](CO)NC(=O)[C@@H]1CCCN1C(=O)[C@@H](NC(=O)CNC(=O)[C@H](Cc1ccc(O)cc1)NC(=O)[C@@H](NC(=O)[C@@H](NC(=O)[C@H](CCCNC(=N)N)NC(=O)[C@H](C)NC(=O)[C@H](CCCNC(=N)N)NC(=O)[C@@H]1CCCN1C(=O)[C@H](CC(=O)O)NC(=O)[C@H](CO)NC(=O)[C@@H](NC(=O)CNC(=O)[C@H](CO)NC(=O)[C@@H](NC(=O)[C@H](CC(C)C)NC(=O)[C@H](CC(C)C)NC(=O)[C@H](C)N)[C@@H](C)O)[C@@H](C)O)C(C)C)[C@@H](C)O)[C@@H](C)O)C(=O)N[C@@H](CCCN)C(=O)N[C@@H](Cc1ccccc1)C(N)=O [1C11-D-Arg-Dmt-Orn-Phe] (H-ALLTSGTSDPRARVTYGTPSLWARL[dR][Dmt][Orn]F-NH2; N-terminus and C-terminus assumed),30.3 ± 5.5
2,CC(C)C[C@H](NC(=O)[C@H](C)N)C(=O)N[C@@H](CC(C)C)C(=O)N[C@H](C(=O)N[C@@H](CO)C(=O)NCC(=O)N[C@H](C(=O)N[C@@H](CO)C(=O)N[C@@H](CC(=O)O)C(=O)N1CCC[C@H]1C(=O)N[C@@H](CCCNC(=N)N)C(=O)N[C@@H](C)C(=O)N[C@@H](CCCNC(=N)N)C(=O)N[C@H](C(=O)N[C@H](C(=O)N[C@@H](Cc1ccc(O)cc1)C(=O)NCC(=O)N[C@H](C(=O)N1CCC[C@H]1C(=O)N[C@@H](CO)C(=O)N[C@@H](CC(C)C)C(=O)N[C@@H](Cc1c[nH]c2ccccc12)C(=O)N[C@@H](C)C(=O)N[C@@H](CCCNC(=N)N)C(=O)N[C@@H](CC(C)C)C(=O)N[C@@H](CCCNC(=N)N)C(=O)N[C@H](CCCNC(=N)N)C(=O)N[C@@H](CCCNC(=N)N)C(=O)N[C@@H](CCCCN)C(=O)O)[C@@H](C)O)[C@@H](C)O)C(C)C)[C@@H](C)O)[C@@H](C)O [1C11-R-{D-Arg}-RK] (H-ALLTSGTSDPRARVTYGTPSLWARLR[dR]RK-OH; N-terminus and C-terminus assumed),30 ± 3.8
3,CC[C@H](C)[C@H](NC(=O)[C@@H](NC(=O)[C@H](CC(N)=O)NC(=O)[C@H](C)NC(=O)[C@H](CCCCN)NC(=O)[C@H](CC(C)C)NC(=O)[C@H](CC(C)C)NC(=O)[C@H](CC(N)=O)NC(=O)[C@H](CC(=O)O)NC(=O)[C@H](CC(C)C)NC(=O)[C@@H](NC(=O)[C@@H]1CCCN1C(=O)[C@H](CC(C)C)NC(=O)[C@@H](NC(=O)[C@H](CS)NC(=O)[C@@H](NC(=O)[C@H](CC(C)C)NC(=O)[C@H](CCC(N)=O)NC(=O)[C@H](CCC(N)=O)NC(=O)[C@@H](N)Cc1ccccc1)[C@@H](C)O)C(C)C)[C@@H](C)CC)C(C)C)C(=O)N[C@@H](CC(N)=O)C(=O)N[C@@H](CCCCN)C(=O)N[C@@H](CCC(N)=O)C(=O)N[C@@H](CCC(=O)O)C(=O)N[C@@H](Cc1c[nH]cn1)C(=O)N[C@H](CCCNC(=N)N)C(=O)N[C@@H](Cc1c(C)cc(O)cc1C)C(=O)N[C@@H](CCCN)C(=O)N[C@@H](Cc1ccccc1)C(N)=O [1E14-D-Arg-Dmt-Orn-Phe] (H-FQQLTCVLPILDNLLKANVINKQEH[dR][Dmt][Orn]F-NH2; N-terminus and C-terminus assumed),> 100
4,CC[C@H](C)[C@H](NC(=O)[C@@H]1CCCN1C(=O)[C@H](CO)NC(=O)[C@H](CO)NC(=O)[C@@H](NC(=O)[C@H](CO)NC(=O)[C@H](CC(C)C)NC(=O)[C@H](C)N)[C@@H](C)O)C(=O)N1CCC[C@H]1C(=O)N[C@@H](CO)C(=O)N[C@H](C(=O)N1CCC[C@H]1C(=O)N[C@@H](CCC(N)=O)C(=O)N[C@@H](CO)C(=O)N[C@@H](CCC(N)=O)C(=O)N[C@@H](C)C(=O)N[C@@H](CCC(N)=O)C(=O)N1CCC[C@H]1C(=O)N[C@@H](CCC(N)=O)C(=O)N[C@H](C(=O)NCC(=O)N[C@@H](CO)C(=O)NCC(=O)N[C@@H](C)C(=O)N[C@@H](CO)C(=O)N[C@@H](CCCNC(=N)N)C(=O)N[C@H](CCCNC(=N)N)C(=O)N[C@@H](CCCNC(=N)N)C(=O)N[C@@H](CCCCN)C(=O)O)[C@@H](C)O)C(C)C [2F3-R-{D-Arg}-RK] (H-ALSTSSPIPSVPQSQAQPQTGSGASR[dR]RK-OH; N-terminus and C-terminus assumed),29.6 ± 0.6
5,Cc1cc(O)cc(C)c1C[C@H](NC(=O)[C@H](N)CCCNC(=N)N)C(=O)N[C@@H](CCCN)C(=O)N[C@@H](Cc1ccccc1)C(=O)N[C@@H](C)C(=O)N[C@@H](CC(C)C)C(=O)N[C@@H](CC(C)C)C(=O)N[C@H](C(=O)N[C@@H](CO)C(=O)NCC(=O)N[C@H](C(=O)N[C@@H](CO)C(=O)N[C@@H](CC(=O)O)C(=O)N1CCC[C@H]1C(=O)N[C@@H](CCCNC(=N)N)C(=O)N[C@@H](C)C(=O)N[C@@H](CCCNC(=N)N)C(=O)N[C@H](C(=O)N[C@H](C(=O)N[C@@H](Cc1ccc(O)cc1)C(=O)NCC(=O)N[C@H](C(=O)N1CCC[C@H]1C(=O)N[C@@H](CO)C(=O)N[C@@H](CC(C)C)C(=O)N[C@@H](Cc1c[nH]c2ccccc12)C(=O)N[C@@H](C)C(=O)N[C@@H](CCCNC(=N)N)C(=O)N[C@@H](CC(C)C)C(=O)O)[C@@H](C)O)[C@@H](C)O)C(C)C)[C@@H](C)O)[C@@H](C)O [D-Arg-Dmt-Orn-Phe-1C11] (H-[dR][Dmt][Orn]FALLTSGTSDPRARVTYGTPSLWARL-OH; N-terminus and C-terminus assumed),89.3 ± 5.49
